Consider 44 compounds from patent US20170037028A1 (BAYER PHARMA AKTIENGESELLSCHAFT, priority 2013, published 2017).

For orientation: IC50 means the midpoint of a concentration-inhibition curve.

The target in one experiment is T1, GLUT1 (Homo sapiens, UniProt P11166).
T1 sequence (P11166 1-492): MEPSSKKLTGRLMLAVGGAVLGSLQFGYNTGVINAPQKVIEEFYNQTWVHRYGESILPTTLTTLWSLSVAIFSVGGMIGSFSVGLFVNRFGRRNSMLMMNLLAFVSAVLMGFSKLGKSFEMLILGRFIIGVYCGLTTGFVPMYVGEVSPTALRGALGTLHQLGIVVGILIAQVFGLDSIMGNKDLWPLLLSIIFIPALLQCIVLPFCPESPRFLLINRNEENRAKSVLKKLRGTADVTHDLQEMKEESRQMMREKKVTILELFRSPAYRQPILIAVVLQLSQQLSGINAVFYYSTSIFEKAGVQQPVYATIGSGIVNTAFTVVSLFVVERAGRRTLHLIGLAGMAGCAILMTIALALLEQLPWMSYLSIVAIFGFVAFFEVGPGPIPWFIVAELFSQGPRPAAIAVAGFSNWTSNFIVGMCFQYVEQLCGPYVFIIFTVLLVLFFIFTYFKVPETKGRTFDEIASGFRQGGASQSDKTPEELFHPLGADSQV
Put plainly: Indirect measurement of GLUT1 activity by quantification of intracellular ATP levels (glucose induced ATP increase). In kind it is cell-based. Also noted: endogenous in cells; host or cells: DLD1 or CHO-K1. As to conditions: DLD1 cells; 0.1 mM glucose, 1 μM Rotenone, 15 min; CellTiter-Glo ATP readout; IC50 values standardized to cytochalasin B IC50 values; read-out: IC50 regarding glucose induced ATP increase (GLUT1 inhibition). In short, it runs like this:
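DLD1 or CHO-K1 cells were starved overnight in glucose-free medium with 1% FCS, then combined with an oxidative phosphorylation inhibitor. GLUT1 activity was read as glucose-induced ATP increase, GLUT2 as fructose-induced. Intracellular ATP was quantified by CellTiter-Glo luminescence.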
(In ATP-based viability assays light output follows the ATP content of the culture.)
Regarding `Cc1nn(CCc2ccc(F)cc2)c(C)c1NC(=O)c1cc(C(F)(F)F)nc2ccc(Br)cc12` [Example 1129], the 50% inhibitory concentration (IC50) amounted to 86.6 nM.

Staying with this experiment, now noted: read-out: IC50 regarding glucose induced ATP increase (GLUT1 inhibition).
As to `Cc1nn(Cc2cc(F)cc(F)c2)c(C)c1NC(=O)c1cc(C(F)(F)F)nc2ccc(Br)cc12` [Example 1256], the IC50 was determined as 2040 nM. For the compound `Cc1nn(Cc2ccc(C#N)cc2)c(C)c1NC(=O)c1cc(C(N)=O)nc2cccc(F)c12` [Example 262, N^4-[1-(4-cyanobenzyl)-3,5-dimethyl-1H-pyrazol-4-yl]-5-fluoroquinoline-2,4-dicarboxamide], the half-inhibitory concentration (IC50) stood at 1.2 nM. Consider `Cc1nn(Cc2ccc(C(=O)Nc3ccccc3Cl)cc2)c(C)c1NC(=O)c1cc(C(F)(F)F)nc2ccc(Br)cc12` [Example 1040], for which the half-inhibitory concentration (IC50) worked out at 6.7 nM.

Regarding `Cc1nn(Cc2ccc(C(=O)NCCN(C)C)cc2)c(C)c1NC(=O)c1cc(C(N)=O)nc2cc(F)ccc12` [Example 1422], the 50% inhibitory concentration (IC50) stood at 7110 nM.

Consider `Cc1nn(Cc2ccc(C(=O)NCCCO)cn2)c(C)c1NC(=O)c1cc(C(F)(F)F)nc2ccc(Br)cc12` [Example 1131], for which the IC50 worked out at 86.7 nM. `Cc1cc(F)ccc1Cn1nc(C(F)(F)F)c(NC(=O)c2cc(C(N)=O)nc3cccc(F)c23)c1C` [Example 1711]: the IC50 came out at 4.4 nM. Consider `Cc1nn(Cc2ccc(C(=O)NCCN(C)C)cc2)c(C)c1NC(=O)c1cc(C(F)(F)F)nc2ccc(Br)cc12` [Example 142, 6-bromo-N-[1-(4-{[2-(dimethylamino)ethyl]carbamoyl}benzyl)-3,5-dimethyl-1H-pyrazol-4-yl]-2-(trifluoromethyl)quinoline-4-carboxamide], for which the IC50 was found to be 70.7 nM. The same measure, in the same setting: then `Cc1c(NC(=O)c2cc(C(N)=O)nc3cc(F)ccc23)c(C(F)(F)F)nn1Cc1ccc(C#N)cc1O` [Example 1668], with 23.6 nM. On to `Cc1ccc2nc(C)cc(C(=O)Nc3c(C)nn(Cc4cccc(C(F)(F)F)c4)c3C)c2c1` [Example 1300], for which the IC50 stood at 11100 nM.

For `Cc1nn(Cc2ccc(C(=O)NCc3cncn3C)cc2)c(C)c1NC(=O)c1cc(C(F)(F)F)nc2ccc(Br)cc12` [Example 1142], the IC50 amounted to 112 nM.

Turning to `Cc1nn(CC2CCN(S(C)(=O)=O)CC2)c(C)c1NC(=O)c1cc(C(F)(F)F)nc2ccc(Br)cc12` [Example 1072], the concentration for half-maximal inhibition (IC50) was determined as 21 nM. `CC(=O)c1ccc(Cn2nc(C)c(NC(=O)c3cc(C(N)=O)nc4cc(F)ccc34)c2C)cc1` [Example 1608]: the half-maximal inhibitory concentration (IC50) worked out at 4 nM.

Consider `CCCCS(=O)(=O)N1CCC(Cn2nc(C)c(NC(=O)c3cc(C(N)=O)nc4ccccc34)c2C)CC1` [Example 1511], for which the concentration for half-maximal inhibition (IC50) stood at 31.8 nM.

Take `Cc1cc(F)ccc1Cn1nc(C(F)(F)F)c(NC(=O)c2cc(C(N)=O)nc3cc(F)c(Cl)cc23)c1C` [Example 1712]: the IC50 is 6.5 nM. In the case of `Cc1nn(Cc2cccc(C(F)(F)F)c2)c(C)c1NC(=O)c1cc(C(F)(F)F)nc2c(Cl)cc(Cl)cc12` [Example 1306], the 50% inhibitory concentration (IC50) came to 11100 nM. For `CC(=O)c1ccc(Cn2nc(C(F)(F)F)c(NC(=O)c3cc(C(N)=O)nc4cc(F)ccc34)c2C)cc1` [Example 1605], the IC50 came to 2.6 nM. With `COc1cc(Cn2nc(C)c(NC(=O)c3cc(C)nc4ccc(C)cc34)c2C)cc(OC)c1` [Example 1293], the IC50 was 7790 nM. As for `Cc1nn(Cc2c(F)cc(C#N)cc2F)c(C)c1NC(=O)c1cc(C(N)=O)nc2ccccc12` [Example 391, N^4-[1-(4-cyano-2,6-difluorobenzyl)-3,5-dimethyl-1H-pyrazol-4-yl]quinoline-2,4-dicarboxamide], the half-inhibitory concentration (IC50) stood at 7 nM. Turning to `Cc1cc(Cn2nc(C(F)(F)F)c(NC(=O)c3cc(C(N)=O)nc4ccccc34)c2C)no1` [Example 1538], the half-maximal inhibitory concentration (IC50) is 73.1 nM. On to `Cc1c(NC(=O)c2cc(C(N)=O)nc3cc(F)ccc23)c(C(F)(F)F)nn1Cc1ccc(OC(F)(F)F)cc1` [Example 1466], for which the IC50 stood at 5.4 nM. For the compound `Cc1c(NC(=O)c2cc(C(N)=O)nc3ccccc23)c(C(F)(F)F)nn1Cc1ccc(C#N)s1` [Example 1679], the concentration for half-maximal inhibition (IC50) is 18.6 nM. For `Cc1c(NC(=O)c2cc(C(N)=O)nc3cc(F)ccc23)c(C(F)(F)F)nn1Cc1csc(C#N)n1` [Example 1674], the IC50 came to 21 nM. On the same count and under the same terms, to `COc1ccc(Cn2nc(C)c(NC(=O)c3cc(C(N)=O)nc4cc(F)c(Cl)cc34)c2C)cc1F` [Example 237, 6-chloro-7-fluoro-N^4-[1-(3-fluoro-4-methoxybenzyl)-3,5-dimethyl-1H-pyrazol-4-yl]quinoline-2,4-dicarboxamide] belongs 0.4 nM. On to `CCc1noc(Cn2nc(C(F)(F)F)c(NC(=O)c3cc(C(N)=O)nc4cc(F)ccc34)c2C)n1` [Example 1537], for which the IC50 was 185 nM. Same read-out and setting: then `Cc1nn(Cc2ccc(Cl)cc2)c(C)c1NC(=O)c1cc(C(F)(F)F)nc2ccc(Br)cc12` [Example 148, 6-bromo-N-[1-(4-chlorobenzyl)-3,5-dimethyl-1H-pyrazol-4-yl]-2-(trifluoromethyl)quinoline-4-carboxamide], with 11.4 nM; and `Cc1c(NC(=O)c2cc(C(F)(F)F)nc3cc(F)c(F)cc23)c(C(F)(F)F)nn1Cc1ccc(F)cc1` [Example 193, 6,7-difluoro-N-[1-(4-fluorobenzyl)-5-methyl-3-(trifluoromethyl)-1H-pyrazol-4-yl]-2-(trifluoromethyl)quinoline-4-carboxamide], with 215 nM; and `Cc1nn(Cc2cscn2)c(C)c1NC(=O)c1cc(C(N)=O)nc2ccccc12` [Example 1339], with 72.2 nM. With `Cc1nn(Cc2ccc(F)c(F)c2)c(C)c1NC(=O)c1cc(C(N)=O)nc2cc(F)c(Cl)cc12` [Example 1472], the 50% inhibitory concentration (IC50) worked out at 0.9 nM. As for `Cc1nn(Cc2ccc(C(=O)NC(C)(CO)CO)cc2)c(C)c1NC(=O)c1cc(C(F)(F)F)nc2ccc(Br)cc12` [Example 1096], the IC50 was found to be 41.1 nM. In the case of `Cc1c(NC(=O)c2cc(C(F)(F)F)nc3c(Cl)cc(Cl)cc23)c(C(F)(F)F)nn1Cc1ccc(F)cc1F` [Example 205, 6,8-dichloro-N-[1-(2,4-difluorobenzyl)-5-methyl-3-(trifluoromethyl)-1H-pyrazol-4-yl]-2-(trifluoromethyl)quinoline-4-carboxamide], the IC50 is 613 nM. As to `Cc1c(NC(=O)c2cc(C(N)=O)nc3cc(F)ccc23)c(C(F)(F)F)nn1Cc1cc(C(C)C)no1` [Example 1553], the IC50 turned out to be 159 nM. Take `Cc1ccc2nc(C)cc(C(=O)Nc3c(C)nn(Cc4ccc(C(=O)NCCO)cc4)c3C)c2c1` [Example 202, N-(1-{4-[(2-hydroxyethyl)carbamoyl]benzyl}-3,5-dimethyl-1H-pyrazol-4-yl)-2,6-dimethylquinoline-4-carboxamide]: the half-inhibitory concentration (IC50) is 562 nM. Turning to `Cc1nn(Cc2cccc(C#N)n2)c(C)c1NC(=O)c1cc(C(N)=O)nc2cc(F)ccc12` [Example 1707], the concentration for half-maximal inhibition (IC50) came out at 124 nM.

As to `Cc1nn(Cc2ccc(C(=O)NCC(F)F)cc2)c(C)c1NC(=O)c1cc(C(F)(F)F)nc2ccc(Br)cc12` [Example 1080], the IC50 was found to be 25.8 nM.

For the compound `Cc1cc(Br)c2nc(C(F)(F)F)cc(C(=O)Nc3c(C)nn(Cc4ccc(F)cc4)c3C)c2c1` [Example 21, 8-bromo-N-[1-(4-fluorobenzyl)-3,5-dimethyl-1H-pyrazol-4-yl]-6-methyl-2-(trifluoromethyl)quinoline-4-carboxamide], the IC50 was found to be 14.8 nM. As for `Cc1nn(Cc2ccc(C(=O)NC3CCNC3=O)cc2)c(C)c1NC(=O)c1cc(C(F)(F)F)nc2ccc(Br)cc12` (racemic) [Example 1166], the IC50 amounted to 170 nM. For the compound `Cc1nn(Cc2cccc(C#N)n2)c(C)c1NC(=O)c1cc(C(N)=O)nc2ccccc12` [Example 1708], the 50% inhibitory concentration (IC50) was 147 nM.

For `Cc1c(NC(=O)c2cc(C(N)=O)nc3ccccc23)c(C(F)(F)F)nn1Cc1ccc(F)c(F)c1` [Example 128, N^4-[1-(3,4-difluorobenzyl)-5-methyl-3-(trifluoromethyl)-1H-pyrazol-4-yl]quinoline-2,4-dicarboxamide], the IC50 worked out at 3.3 nM. As to `Cc1nn(Cc2ccc(F)cc2)c(C)c1NC(=O)c1cc(C2CC2)nc2c(F)cccc12` [Example 40, 2-cyclopropyl-8-fluoro-N-[1-(4-fluorobenzyl)-3,5-dimethyl-1H-pyrazol-4-yl]quinoline-4-carboxamide], the IC50 is 30 nM. With `COc1ccc(CCn2nc(C)c(NC(=O)c3cc(C(N)=O)nc4ccccc34)c2C)cc1` [Example 1353], the half-maximal inhibitory concentration (IC50) is 38.9 nM. Take `Cc1ccc(Cn2nc(C)c(NC(=O)c3cc(C(F)(F)F)nc4c(Cl)cc(Cl)cc34)c2C)cc1` [Example 31, 6,8-dichloro-N-[3,5-dimethyl-1-(4-methylbenzyl)-1H-pyrazol-4-yl]-2-(trifluoromethyl)quinoline-4-carboxamide]: the IC50 amounted to 20 nM. As to `Cc1cc(C)n(CCn2nc(C)c(NC(=O)c3cc(C(F)(F)F)nc4ccc(Br)cc34)c2C)n1` [Example 1233], the concentration for half-maximal inhibition (IC50) is 1110 nM. Consider `Cc1nn(Cc2ccc(C#N)nc2)c(C)c1NC(=O)c1cc(C(N)=O)nc2ccc(Br)cc12` [Example 293, 6-bromo-N^4-{1-[(6-cyanopyridin-3-yl)methyl]-3,5-dimethyl-1H-pyrazol-4-yl}quinoline-2,4-dicarboxamide], for which the IC50 is 1 nM.
